Experimental data taken from patent US20180272327A1, “IONIC LIQUID CATALYST TREATING SYSTEM” (UOP LLC, priority 2015, published 2018).

Test system: Aliivibrio fischeri bacteria
Assay: Toxicity test: EC-50 for the luminescence of Aliivibrio fischeri bacteria
Assay type: cell-based
Conditions: for EC-50 for this ionic liquid: worked out from the dilution EC-50 and the ionic liquid content of the solution
Procedure: After filtration to remove the precipitate, this solution, which contains approximately 0.014 mg of ionic liquid/mg solution, was tested for toxicity. The half maximal effective concentration (EC-50) for this solution was then determined for the luminescence of Aliivibrio fischeri bacteria to assess the toxicity of the solution. […] 10.1 grams of a tri-butyl pentyl phosphonium ionic liquid (TBPP) was added to 770 grams of deionized (DI) water, giving a pH of about 3. […] After filtration to remove the precipitate, this solution, which contains approximately 0.013 mg of ionic liquid/mg solution, was tested for toxicity. The EC-50 for this solution was then determined for the luminescence of Aliivibrio fischeri bacteria to assess the toxicity of the solution.

[1] = luminescence of Aliivibrio fischeri

Molecule: CCCCn1cc[n+](C)c1.F[P-](F)(F)(F)(F)F [BMIM, 1-butyl-3-methylimidazolium hexafluorophosphate]
- EC50 (Aliivibrio fischeri, read-out: EC-50 reached at a dilution (of the neutralized, filtered ionic liquid solution)): 5.7 µg/mL
- EC-50 for this ionic liquid [1]: approximately 80 ppB

Molecule: tri-butyl pentyl phosphonium ionic liquid [TBPP]
- EC-50 reached at a dilution (of the neutralized, filtered ionic liquid solution) (luminescence of Aliivibrio fischeri, ionic liquid in DI water neutralized with NaOH to pH approximately 6, precipitate filtered off, approximately 0.013-0.014 mg ionic liquid/mg solution): 1.2 mg solution/Liter water
- EC-50 for this ionic liquid [1]: approximately 16 ppB
